The results in this text go back to ChEMBL document CHEMBL1125342, “Condensation of muscimol or thiomuscimol with aminopyridazines yields GABA-A antagonists” (J Med Chem, 1992).

One may read the IC50 as the concentration needed to halve the response being measured.

Assay [1] concerns the target GABA-A receptor; anion channel. Type of assay: functional, tissue-based, Bos taurus, Brain.
Assay [2] concerns the target GABA-A receptor; anion channel. Type of assay: organism-based, Bos taurus, Brain.

Consider `Cc1cc(-c2ccccc2)c(=N)n(Cc2cc(O)ns2)n1`, for which the IC50 in assay [1] turned out to be 1000 nM; in assay [2], 6600 nM. `Cc1cc(-c2ccccc2)c(=N)n(CCCC(=O)O)n1` showed an IC50 in assay [2] of 10600 nM. For the molecule `C[C@]12CC(=O)C3C(CC[C@@H]4C[C@H](O)CC[C@]34C)C1CC(=N)N2` (stereo partly drawn), the IC50 in assay [1] amounted to 3 nM; in assay [2], 43 nM. In the case of `N=c1ccc(-c2ccc3c(c2)OCO3)nn1Cc1cc(O)no1`, the IC50 in assay [1] worked out at 6 nM; in assay [2], 75 nM. In the case of `N=c1ccc(-c2ccsc2)nn1CCCC(=O)O`, half-maximal inhibition in assay [2] (IC50) required 2370 nM. On the same count and under the same terms, in the case of `Cc1cc(-c2ccccc2)nn(Cc2cc(O)no2)c1=N` it was 1000 nM. As to `N=c1ccc(-c2ccc3c(c2)OCO3)nn1CCCC(=O)O`, the IC50 in assay [2] was found to be 50 nM. `N=c1ccc(-c2ccsc2)nn1Cc1cc(O)no1` showed an IC50 in assay [2] of 1600 nM. Consider `NCc1cc(=O)[nH]o1` [MUSCIMOL], for which the IC50 in assay [1] is 135 nM; in assay [2] it was 2 nM.

Regarding `N=c1ccc(-c2ccc(Cl)cc2)nn1Cc1cc(O)no1`, the IC50 stood at 80 nM in assay [1] and 1200 nM in assay [2]. With `N=c1c2ccccc2c(-c2ccccc2)nn1Cc1cc(O)ns1`, the IC50 in assay [1] was 25 nM; in assay [2] it was 160 nM. In turn, `Cc1cc(-c2ccccc2)nn(CCCC(=O)O)c1=N` showed a 50% inhibitory concentration (IC50) in assay [2] of 2300 nM. Same read-out and setting: for `N=c1ccc(-c2ccc(Cl)cc2)nn1CCCC(=O)O` the value was 280 nM. In the case of `N=c1ccc(-c2ccc(Cl)cc2)nn1Cc1cc(O)ns1`, the results for the IC50 in assay [1] and in assay [2] were 29 nM and 150 nM, respectively. Take `N=c1ccc(-c2ccc3c(c2)OCO3)nn1Cc1cc(O)ns1`: the IC50 in assay [1] came out at 0.76 nM; in assay [2], 17 nM. In the case of `NCc1cc(O)ns1`, the IC50 in assay [2] came out at 19 nM. Same read-out and setting: in the case of `O=C1OC=C2CCCNCC12` (stereo not drawn) it was 56000 nM. `N=c1c2ccccc2c(-c2ccccc2)nn1Cc1cc(O)no1`: the IC50 in assay [1] is 190 nM; in assay [2] it was 120 nM.

`N=c1ccc(-c2ccccc2)nn1CCCC(=O)O` showed an IC50 in assay [2] of 1200 nM.
